Test results as given in ChEMBL document CHEMBL1743201, “Casarett and Doull's Toxicology The Basic Science of Poisons, 7th edition” (2008).

How the values were obtained:
Type in all cases: ADME
Cytochrome P450 2C8 = biological target: T1, Cytochrome P450 2C8 (Homo sapiens, UniProt P10632); test: Clinically relevant inhibitors of human liver microsomal P450 enzymes, isoform CYP2C8; details: microsomes
T1 sequence (P10632 whole entry): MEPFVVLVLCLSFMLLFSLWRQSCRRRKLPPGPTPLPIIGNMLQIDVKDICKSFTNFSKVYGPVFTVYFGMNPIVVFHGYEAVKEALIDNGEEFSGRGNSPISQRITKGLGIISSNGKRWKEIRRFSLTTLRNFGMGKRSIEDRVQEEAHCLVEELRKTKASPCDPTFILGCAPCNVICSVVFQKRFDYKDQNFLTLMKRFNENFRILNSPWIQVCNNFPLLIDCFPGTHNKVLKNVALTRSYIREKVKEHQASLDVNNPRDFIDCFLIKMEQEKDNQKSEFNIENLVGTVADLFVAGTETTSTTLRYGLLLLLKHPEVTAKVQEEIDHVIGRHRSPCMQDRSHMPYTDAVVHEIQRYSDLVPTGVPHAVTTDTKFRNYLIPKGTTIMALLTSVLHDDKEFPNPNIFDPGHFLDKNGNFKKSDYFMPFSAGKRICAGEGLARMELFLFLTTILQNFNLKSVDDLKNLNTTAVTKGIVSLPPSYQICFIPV

[1] = biological target: T2, UDP-glucuronosyltransferase 1A10 (Homo sapiens, UniProt Q9HAW8); test: Substrate of human UDP-glucuronosyltransferase UGT1A10
T2 sequence (Q9HAW8 whole entry): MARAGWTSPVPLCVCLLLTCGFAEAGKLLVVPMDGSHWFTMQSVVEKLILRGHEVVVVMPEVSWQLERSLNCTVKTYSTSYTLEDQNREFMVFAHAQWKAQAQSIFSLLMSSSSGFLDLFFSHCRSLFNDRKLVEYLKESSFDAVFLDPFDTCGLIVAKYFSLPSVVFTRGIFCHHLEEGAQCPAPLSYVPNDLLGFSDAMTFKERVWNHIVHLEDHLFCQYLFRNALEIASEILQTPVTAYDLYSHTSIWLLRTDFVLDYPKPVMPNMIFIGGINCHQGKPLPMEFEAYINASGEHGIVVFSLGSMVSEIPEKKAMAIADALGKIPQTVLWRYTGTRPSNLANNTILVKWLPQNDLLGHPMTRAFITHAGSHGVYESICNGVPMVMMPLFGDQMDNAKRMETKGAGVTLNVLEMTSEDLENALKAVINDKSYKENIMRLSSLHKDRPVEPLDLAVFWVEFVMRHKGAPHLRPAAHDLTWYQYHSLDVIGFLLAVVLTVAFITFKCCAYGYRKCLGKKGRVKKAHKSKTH

[2] = biological target: T3, UDP-glucuronosyltransferase 1A8 (Homo sapiens, UniProt Q9HAW9); test: Substrate of human UDP-glucuronosyltransferase UGT1A8
T3 sequence (Q9HAW9 whole entry): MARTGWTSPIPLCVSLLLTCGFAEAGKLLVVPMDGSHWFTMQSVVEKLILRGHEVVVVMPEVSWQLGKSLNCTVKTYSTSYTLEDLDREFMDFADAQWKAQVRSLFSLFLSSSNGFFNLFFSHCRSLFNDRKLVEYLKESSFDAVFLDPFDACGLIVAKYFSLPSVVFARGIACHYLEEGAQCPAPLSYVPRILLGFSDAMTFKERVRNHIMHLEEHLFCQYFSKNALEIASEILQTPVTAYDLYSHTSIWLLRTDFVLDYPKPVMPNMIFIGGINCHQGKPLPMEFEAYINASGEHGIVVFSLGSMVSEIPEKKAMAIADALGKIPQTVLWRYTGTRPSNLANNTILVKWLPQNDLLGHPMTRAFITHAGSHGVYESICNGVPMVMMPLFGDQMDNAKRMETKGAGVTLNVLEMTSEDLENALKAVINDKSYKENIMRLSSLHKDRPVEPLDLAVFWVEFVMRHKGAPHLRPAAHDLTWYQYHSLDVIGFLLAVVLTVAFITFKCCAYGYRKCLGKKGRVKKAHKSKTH

[3] = biological target: T4, UDP-glucuronosyltransferase 1A1 (Homo sapiens, UniProt P22309); test: Substrate of human UDP-glucuronosyltransferase UGT1A1
T4 sequence (P22309 whole entry): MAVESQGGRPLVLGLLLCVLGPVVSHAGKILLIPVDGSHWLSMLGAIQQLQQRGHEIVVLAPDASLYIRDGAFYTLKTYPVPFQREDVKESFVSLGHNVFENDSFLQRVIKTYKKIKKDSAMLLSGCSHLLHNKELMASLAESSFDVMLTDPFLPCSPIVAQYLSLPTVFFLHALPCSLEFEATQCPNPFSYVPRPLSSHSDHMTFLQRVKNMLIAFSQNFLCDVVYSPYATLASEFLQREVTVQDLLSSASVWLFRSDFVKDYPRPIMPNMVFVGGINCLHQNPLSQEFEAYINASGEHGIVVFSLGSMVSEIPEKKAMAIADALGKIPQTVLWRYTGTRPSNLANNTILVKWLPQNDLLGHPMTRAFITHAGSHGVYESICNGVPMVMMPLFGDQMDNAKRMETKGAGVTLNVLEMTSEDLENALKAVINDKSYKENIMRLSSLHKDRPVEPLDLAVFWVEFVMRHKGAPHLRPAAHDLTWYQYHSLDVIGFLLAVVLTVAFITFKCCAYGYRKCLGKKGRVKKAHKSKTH

Sulfotransferase 1A3 = Sulfotransferase 1A3 (Homo sapiens, UniProt P0DMM9); test: Major substrate of human cytosolic sulfotransferase SULT1A3
Sulfotransferase 2A1 = biological target: T5, Sulfotransferase 2A1 (Homo sapiens, UniProt Q06520); test: Major substrate of human cytosolic sulfotransferase SULT2A1
T5 sequence (Q06520 whole entry): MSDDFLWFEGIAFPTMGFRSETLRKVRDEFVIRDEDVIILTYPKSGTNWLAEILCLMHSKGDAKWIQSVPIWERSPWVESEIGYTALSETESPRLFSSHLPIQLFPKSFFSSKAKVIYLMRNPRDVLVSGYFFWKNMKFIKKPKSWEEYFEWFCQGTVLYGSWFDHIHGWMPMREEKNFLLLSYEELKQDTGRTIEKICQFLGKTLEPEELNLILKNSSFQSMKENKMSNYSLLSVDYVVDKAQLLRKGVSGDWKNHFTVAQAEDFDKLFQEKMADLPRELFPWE

Sulfotransferase 1C4 = Sulfotransferase 1C4 (Homo sapiens, UniProt O75897); test: Major substrate of human cytosolic sulfotransferase SULT1C4
Sulfotransferase 1E1 = biological target: T6, Sulfotransferase 1E1 (Homo sapiens, UniProt P49888); test: Major substrate of human cytosolic sulfotransferase SULT1E1
T6 sequence (P49888 whole entry): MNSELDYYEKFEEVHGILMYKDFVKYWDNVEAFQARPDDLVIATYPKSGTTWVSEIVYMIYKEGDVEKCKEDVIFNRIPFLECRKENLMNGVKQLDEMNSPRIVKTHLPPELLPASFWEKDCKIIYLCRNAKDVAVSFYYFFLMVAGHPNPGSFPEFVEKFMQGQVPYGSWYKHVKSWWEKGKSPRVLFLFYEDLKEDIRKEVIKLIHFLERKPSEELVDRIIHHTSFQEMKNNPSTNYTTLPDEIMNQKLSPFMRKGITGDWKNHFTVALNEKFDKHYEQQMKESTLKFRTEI

[4] = biological target: T7, UDP-glucuronosyltransferase 1A6 (Homo sapiens, UniProt P19224); test: Substrate of human UDP-glucuronosyltransferase UGT1A6
T7 sequence (P19224 whole entry): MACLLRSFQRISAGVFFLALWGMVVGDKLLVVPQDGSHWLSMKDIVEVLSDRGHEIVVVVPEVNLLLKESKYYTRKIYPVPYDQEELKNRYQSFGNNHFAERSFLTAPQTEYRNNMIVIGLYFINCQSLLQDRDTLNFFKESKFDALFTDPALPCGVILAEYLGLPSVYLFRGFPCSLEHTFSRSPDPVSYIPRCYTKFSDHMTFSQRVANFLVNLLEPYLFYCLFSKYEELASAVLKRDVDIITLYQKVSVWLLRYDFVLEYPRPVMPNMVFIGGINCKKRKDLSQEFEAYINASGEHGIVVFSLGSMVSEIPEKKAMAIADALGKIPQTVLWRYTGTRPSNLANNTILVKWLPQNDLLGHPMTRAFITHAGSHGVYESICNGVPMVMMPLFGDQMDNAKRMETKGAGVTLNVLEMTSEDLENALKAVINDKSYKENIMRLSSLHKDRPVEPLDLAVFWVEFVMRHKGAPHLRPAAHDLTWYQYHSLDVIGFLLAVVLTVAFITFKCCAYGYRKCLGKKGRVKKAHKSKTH

Sulfotransferase 1B1 = Sulfotransferase 1B1 (Homo sapiens, UniProt O43704); test: Major substrate of human cytosolic sulfotransferase SULT1B1
Sulfotransferase 4A1 = biological target: T8, Sulfotransferase 4A1 (Homo sapiens, UniProt Q9BR01); test: Major substrate of human cytosolic sulfotransferase SULT4A1_v1
T8 sequence (Q9BR01 whole entry): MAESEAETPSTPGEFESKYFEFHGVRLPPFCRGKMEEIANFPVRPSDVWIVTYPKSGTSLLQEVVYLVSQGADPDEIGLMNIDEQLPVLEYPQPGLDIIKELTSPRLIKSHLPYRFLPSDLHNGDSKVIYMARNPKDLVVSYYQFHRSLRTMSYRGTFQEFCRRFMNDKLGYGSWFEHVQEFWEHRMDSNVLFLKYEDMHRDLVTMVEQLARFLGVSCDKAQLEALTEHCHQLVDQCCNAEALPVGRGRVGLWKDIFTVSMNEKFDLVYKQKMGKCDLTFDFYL

Sulfotransferase 1A1 = Sulfotransferase 1A1 (Homo sapiens, UniProt P50225); test: Major substrate of human cytosolic sulfotransferase SULT1A1
[5] = biological target: T9, UDP-glucuronosyltransferase 1A9 (Homo sapiens, UniProt O60656); test: Substrate of human UDP-glucuronosyltransferase UGT1A9
T9 sequence (O60656 whole entry): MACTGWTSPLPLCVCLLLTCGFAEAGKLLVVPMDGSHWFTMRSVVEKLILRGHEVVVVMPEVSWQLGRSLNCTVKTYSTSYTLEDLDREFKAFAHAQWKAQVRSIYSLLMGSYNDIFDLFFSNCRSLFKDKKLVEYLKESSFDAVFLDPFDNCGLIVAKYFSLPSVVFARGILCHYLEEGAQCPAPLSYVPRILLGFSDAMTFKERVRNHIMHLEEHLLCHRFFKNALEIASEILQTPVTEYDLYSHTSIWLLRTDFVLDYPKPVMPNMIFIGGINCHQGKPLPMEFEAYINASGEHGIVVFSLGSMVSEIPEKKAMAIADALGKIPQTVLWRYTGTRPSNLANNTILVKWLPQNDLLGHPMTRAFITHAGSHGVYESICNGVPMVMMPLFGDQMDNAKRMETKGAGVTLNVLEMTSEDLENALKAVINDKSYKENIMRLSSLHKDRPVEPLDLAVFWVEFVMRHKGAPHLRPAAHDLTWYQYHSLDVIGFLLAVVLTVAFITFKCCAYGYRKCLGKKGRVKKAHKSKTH

Sulfotransferase 1A1, sequence (P50225 whole entry): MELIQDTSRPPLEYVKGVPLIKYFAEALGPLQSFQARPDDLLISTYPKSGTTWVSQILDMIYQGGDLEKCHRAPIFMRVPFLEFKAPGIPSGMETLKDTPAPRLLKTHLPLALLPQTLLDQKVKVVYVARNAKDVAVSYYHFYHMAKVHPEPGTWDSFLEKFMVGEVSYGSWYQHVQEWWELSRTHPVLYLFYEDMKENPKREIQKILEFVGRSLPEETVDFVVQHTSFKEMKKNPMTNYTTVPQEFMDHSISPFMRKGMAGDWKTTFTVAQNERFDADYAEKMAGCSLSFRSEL
Sulfotransferase 1A3, sequence (P0DMM9 whole entry): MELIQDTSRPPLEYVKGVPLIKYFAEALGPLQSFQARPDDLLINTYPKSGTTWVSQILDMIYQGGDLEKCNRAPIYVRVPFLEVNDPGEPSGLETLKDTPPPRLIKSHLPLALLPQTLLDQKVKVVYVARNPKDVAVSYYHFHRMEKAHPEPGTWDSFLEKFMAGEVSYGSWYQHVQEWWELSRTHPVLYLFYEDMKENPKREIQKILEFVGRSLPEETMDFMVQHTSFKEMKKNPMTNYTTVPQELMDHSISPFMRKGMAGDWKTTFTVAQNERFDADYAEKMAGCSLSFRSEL
Sulfotransferase 1B1, sequence (O43704 whole entry): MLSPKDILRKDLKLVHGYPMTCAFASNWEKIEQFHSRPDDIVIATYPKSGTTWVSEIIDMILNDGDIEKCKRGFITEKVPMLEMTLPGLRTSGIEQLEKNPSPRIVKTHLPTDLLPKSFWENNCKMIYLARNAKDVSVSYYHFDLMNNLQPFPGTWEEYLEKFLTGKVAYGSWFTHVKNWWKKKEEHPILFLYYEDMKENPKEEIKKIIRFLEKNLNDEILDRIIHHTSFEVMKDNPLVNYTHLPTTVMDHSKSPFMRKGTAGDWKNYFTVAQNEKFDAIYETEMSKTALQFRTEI
Sulfotransferase 1C4, sequence (O75897 whole entry): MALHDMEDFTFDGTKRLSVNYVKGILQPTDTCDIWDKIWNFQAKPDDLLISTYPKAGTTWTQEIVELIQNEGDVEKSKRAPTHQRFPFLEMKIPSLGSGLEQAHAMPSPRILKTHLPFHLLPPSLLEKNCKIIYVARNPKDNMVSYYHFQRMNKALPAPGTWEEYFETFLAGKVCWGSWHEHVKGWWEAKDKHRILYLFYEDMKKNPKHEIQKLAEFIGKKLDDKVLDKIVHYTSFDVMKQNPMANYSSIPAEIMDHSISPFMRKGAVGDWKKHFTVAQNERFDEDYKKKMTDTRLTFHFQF

CC(C)c1nc(N(C)S(C)(=O)=O)nc(-c2ccc(F)cc2)c1/C=C/[C@@H](O)C[C@@H](O)CC(=O)O [ROSUVASTATIN]
Activity (Cytochrome P450 2C8): Inhibitor

O=c1c(O)c(-c2ccc(O)c(O)c2)oc2cc(O)cc(O)c12 [QUERCETIN]
Activity (Cytochrome P450 2C8): Inhibitor

O=C(c1ccc(OCCN2CCCCC2)cc1)c1c(-c2ccc(O)cc2)sc2cc(O)ccc12 [RALOXIFENE]
Activity [1]: Substrate
Activity [2]: Substrate
Activity [3]: Substrate

CC(CCc1ccc(O)cc1)NCCc1ccc(O)c(O)c1 (stereo unspecified) [DOBUTAMINE]
Activity (Sulfotransferase 1A3): Substrate

Cc1ccc(C)c(OCCCC(C)(C)C(=O)O)c1 [GEMFIBROZIL]
Activity (Cytochrome P450 2C8): Inhibitor

OCc1ccc2ccc3cccc4ccc1c2c34
Activity (Sulfotransferase 1A3): Substrate
Activity (Sulfotransferase 2A1): Substrate
Activity (Sulfotransferase 1C4): Substrate

Oc1cccc2ccccc12 [1-NAPHTHOL]
Activity [1]: Substrate
Activity (Sulfotransferase 1E1): Substrate
Activity [4]: Substrate

N[C@@H](Cc1ccc(Oc2cc(I)c(O)c(I)c2)c(I)c1)C(=O)O [REVERSE TRIIODOTHYRONINE]
Activity (Sulfotransferase 1B1): Substrate

CC(C)(O)c1ccccc1CC[C@@H](SCC1(CC(=O)O)CC1)c1cccc(/C=C/c2ccc3ccc(Cl)cc3n2)c1 [MONTELUKAST]
Activity (Cytochrome P450 2C8): Inhibitor

N[C@@H](Cc1cc(I)c(Oc2cc(I)c(O)c(I)c2)c(I)c1)C(=O)O [LEVOTHYROXINE]
Activity (Sulfotransferase 1B1): Substrate
Activity [3]: Substrate
Activity (Sulfotransferase 4A1): Substrate

CC(C)(C)NCC(O)c1ccc(O)c(CO)c1 (stereo unspecified) [ALBUTEROL]
Activity (Sulfotransferase 1A3): Substrate

Nc1ccc2ccccc2c1 [NAPHTHYLAMINE]
Activity (Sulfotransferase 4A1): Substrate

NC[C@H](O)c1ccc(O)c(O)c1 [NOREPINEPHRINE]
Activity (Sulfotransferase 1A3): Substrate

CC#C[C@]1(O)CC[C@H]2[C@@H]3CCc4cc(O)ccc4[C@H]3CC[C@@]21C [ESTROGEN]
Activity [1]: Substrate

Cc1c(C)c2c(c(C)c1O)CCC(C)(COc1ccc(CC3SC(=O)NC3=O)cc1)O2 (stereo unspecified) [TROGLITAZONE]
Activity [1]: Substrate
Activity (Sulfotransferase 1A1): Substrate
Activity [2]: Substrate

N[C@@H](Cc1cc(I)c(Oc2ccc(O)c(I)c2)c(I)c1)C(=O)O [LIOTHYRONINE]
Activity (Sulfotransferase 1A1): Substrate
Activity (Sulfotransferase 1B1): Substrate
Activity (Sulfotransferase 4A1): Substrate

NCCc1ccc(O)c(O)c1 [DOPAMINE]
Activity (Sulfotransferase 1A1): Substrate
Activity (Sulfotransferase 1B1): Substrate
Activity (Sulfotransferase 1A3): Substrate

C[C@]12CC[C@@H]3c4ccc(O)cc4CC[C@H]3[C@@H]1CCC2=O [ESTRONE]
Activity (Sulfotransferase 1E1): Substrate
Activity (Sulfotransferase 2A1): Substrate
Activity (Sulfotransferase 1C4): Substrate
Activity (Sulfotransferase 4A1): Substrate

CCc1ccc(CCOc2ccc(CC3SC(=O)NC3=O)cc2)nc1 (stereo unspecified) [PIOGLITAZONE]
Activity (Cytochrome P450 2C8): Inhibitor

NC(Cc1ccc(Oc2ccc(O)c(I)c2)c(I)c1)C(=O)O (stereo unspecified) [DIIODOTHYRONINE]
Activity (Sulfotransferase 1A1): Substrate
Activity (Sulfotransferase 1B1): Substrate

NS(=O)(=O)c1cc(C(=O)O)c(NCc2ccco2)cc1Cl [FUROSEMIDE]
Activity [1]: Substrate
Activity [2]: Substrate
Activity [5]: Substrate
